From paper PMC4628008, “Characterization of Lactobacillus salivarius alanine racemase: short-chain carboxylate-activation and the role of A131” (SpringerPlus, 2015)

Assays:
[1] = molecular target: T1, L. salivarius alanine racemase (ALR) (Ligilactobacillus salivarius, UniProt Q1WV14); test: UPLC activity assay; type: biochemical; details: 20 mM L-alanine; 0.05 mM PLP; pH 7.0 (MES), 30 °C; activator
T1 construct: full-length ORF in pET-28a (NdeI/XhoI, own stop codon), N-terminal His tag, tag kept; E. coli BL21-CodonPlus(DE3)-RIPL
T1 sequence (Q1WV14 1-371): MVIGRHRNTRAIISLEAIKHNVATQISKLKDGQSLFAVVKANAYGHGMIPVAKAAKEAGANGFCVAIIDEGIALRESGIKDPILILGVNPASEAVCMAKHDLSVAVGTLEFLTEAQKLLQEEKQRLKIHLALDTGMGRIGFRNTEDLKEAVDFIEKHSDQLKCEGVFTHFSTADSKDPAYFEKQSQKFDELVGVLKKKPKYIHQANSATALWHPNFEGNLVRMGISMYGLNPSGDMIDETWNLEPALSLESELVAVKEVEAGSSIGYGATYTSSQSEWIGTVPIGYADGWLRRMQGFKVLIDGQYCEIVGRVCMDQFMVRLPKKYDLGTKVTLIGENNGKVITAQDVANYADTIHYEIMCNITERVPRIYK

[2] = molecular target: T2, L. salivarius alanine racemase (ALR) (Ligilactobacillus salivarius, UniProt Q1WV14, A131K); test: UPLC activity assay; type: biochemical; details: 20 mM L-alanine; 0.05 mM PLP; pH 7.0 (MES), 30 °C
T2 construct: full-length ORF in pET-28a (NdeI/XhoI, own stop codon), N-terminal His tag, tag kept; E. coli BL21-CodonPlus(DE3)-RIPL

[3] = molecular target: T1, L. salivarius alanine racemase (ALR); test: UPLC activity assay; type: biochemical; details: 20 mM L-alanine; 0.05 mM PLP; pH 7.0 (MES), 30 °C
purified protein = substrate: C[C@H](N)C(=O)O; test: purified protein; details: no acetate, 0.05 mM PLP, pH 7.0 (MES), 30 °C

Molecule	relative activity at 1 mM (activation) [1]	relative activity at 1 mM (inhibition) [2]	relative activity at 1 mM (inhibition) [3]	Km (purified protein) [mM]
CCCC(=O)O [butyrate]	they strongly activated L. salivarius ALR	both propionate and butyrate strongly inhibited ALR^A131K	–	–
CCC(=O)O [propionate]	they strongly activated L. salivarius ALR	both propionate and butyrate strongly inhibited ALR^A131K	–	–
CC(=O)C(=O)O [pyruvate]	–	succinate, pyruvate, 2-oxoglutarate, oxaloacetate and aspartate also more strongly inhibited ALR^A131K than ALR	–	–
CC(O)C(=O)O (racemic) [D, L-lactate]	–	ALR and ALR^A131K were both inhibited by D, L-lactate	ALR and ALR^A131K were both inhibited by D, L-lactate	–
O=C(O)CC(=O)C(=O)O [oxaloacetate]	–	succinate, pyruvate, 2-oxoglutarate, oxaloacetate and aspartate also more strongly inhibited ALR^A131K than ALR	–	–
L. salivarius alanine racemase (ALR) (Ligilactobacillus salivarius UCC118) (protein) MVIGRHRNTRAIISLEAIKHNVATQISKLKDGQSLFAVVKANAYGHGMIPVAKAAKEAGANGFCVAIIDEGIALRESGIKDPILILGVNPASEAVCMAKHDLSVAVGTLEFLTEAQKLLQEEKQRLKIHLALDTGMGRIGFRNTEDLKEAVDFIEKHSDQLKCEGVFTHFSTADSKDPAYFEKQSQKFDELVGVLKKKPKYIHQANSATALWHPNFEGNLVRMGISMYGLNPSGDMIDETWNLEPALSLESELVAVKEVEAGSSIGYGATYTSSQSEWIGTVPIGYADGWLRRMQGFKVLIDGQYCEIVGRVCMDQFMVRLPKKYDLGTKVTLIGENNGKVITAQDVANYADTIHYEIMCNITERVPRIYK	–	–	–	11.5
L. salivarius alanine racemase (ALR) (Ligilactobacillus salivarius UCC118; A131K) (protein) MVIGRHRNTRAIISLEAIKHNVATQISKLKDGQSLFAVVKANAYGHGMIPVAKAAKEAGANGFCVAIIDEGIALRESGIKDPILILGVNPASEAVCMAKHDLSVAVGTLEFLTEAQKLLQEEKQRLKIHLKLDTGMGRIGFRNTEDLKEAVDFIEKHSDQLKCEGVFTHFSTADSKDPAYFEKQSQKFDELVGVLKKKPKYIHQANSATALWHPNFEGNLVRMGISMYGLNPSGDMIDETWNLEPALSLESELVAVKEVEAGSSIGYGATYTSSQSEWIGTVPIGYADGWLRRMQGFKVLIDGQYCEIVGRVCMDQFMVRLPKKYDLGTKVTLIGENNGKVITAQDVANYADTIHYEIMCNITERVPRIYK	–	–	–	9.20
